Measured values as given in patent publication US20170280720A1, “ARGININE […] INHIBITORS AND USES THEREOF” (EPIZYME, INC., priority 2014, published 2017).

Target: T1, human PRMT1 (Homo sapiens, UniProt Q99873)
T1 construct: GST-tagged PRMT1; made in house; host or cells: High Five insect cells (baculovirus, pFastBacI)
Experiment: PRMT1 biochemical assay (3H-SAM Flashplate, peptide substrate)
Conditions: read-out: PRMT1_ IC50
Summary of the method: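 FLAG-tagged full-length human PRMT1 (0.5 nM, GST-tagged, insect-cell expressed) preincubated 30 min at RT with compound, then biotinylated histone H4 36-50 peptide (20 nM) plus 200 nM 3H-SAM and 1.5 uM SAM in Bicine pH 7.6, 2% DMSO. 3H-methylated peptide captured on streptavidin Flashplate; IC50 from 3/4-parameter fit.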

T1 sequence (Q99873 with tags, fused parts or gaps): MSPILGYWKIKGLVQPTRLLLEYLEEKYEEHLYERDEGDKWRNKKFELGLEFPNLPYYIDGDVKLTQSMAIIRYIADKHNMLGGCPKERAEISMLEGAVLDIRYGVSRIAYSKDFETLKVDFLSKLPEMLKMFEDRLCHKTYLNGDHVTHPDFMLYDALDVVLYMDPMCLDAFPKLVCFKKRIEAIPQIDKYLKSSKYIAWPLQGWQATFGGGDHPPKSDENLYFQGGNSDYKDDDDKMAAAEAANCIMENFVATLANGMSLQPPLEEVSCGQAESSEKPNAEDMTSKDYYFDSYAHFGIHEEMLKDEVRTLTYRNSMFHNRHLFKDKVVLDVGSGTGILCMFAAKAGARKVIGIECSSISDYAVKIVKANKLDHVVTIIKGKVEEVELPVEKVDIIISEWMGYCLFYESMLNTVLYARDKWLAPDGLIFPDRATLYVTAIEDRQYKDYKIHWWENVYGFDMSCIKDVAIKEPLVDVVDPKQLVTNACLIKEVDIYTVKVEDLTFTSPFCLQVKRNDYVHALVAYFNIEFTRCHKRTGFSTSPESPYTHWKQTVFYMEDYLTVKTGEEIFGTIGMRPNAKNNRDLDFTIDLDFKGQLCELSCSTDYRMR

**Q.** With CC(C)n1ncc2c(NC3CCOCC3)cc(-c3cccc(CN(C)CCN)c3)nc21 [Compound 101] as the compound, how does the IC50 read?
**A.** 488 nM

**Q.** With CNCCN(C)Cc1cccc(-c2cc(OC3CCOC3)c3cnn(C(C)C)c3n2)c1 (stereo not drawn) [Compound 102] as the compound, how does the IC50 read?
**A.** 492 nM

**Q.** How did the IC50 turn out when CNCCN(C)Cc1cccc(-c2cc(N(C)C)c3cnn(C(C)C)c3n2)c1 [Compound 103] was run?
**A.** 517 nM

**Q.** NCCNCc1ccc(-c2ccc3ncn(Cc4ccc(C(=O)N5CCCC5)cc4)c3c2)cc1 [Compound 104] was tested. Which IC50 did it give?
**A.** 531 nM

**Q.** With CNCCN(C)Cc1cccc(-c2cc(C(=O)NCC3CCOCC3)c3cnn(C(C)C)c3n2)c1 [Compound 105] as the compound, how does the IC50 read?
**A.** 548 nM

**Q.** How did the IC50 turn out when Cc1cccc(-n2cnc3ccc(-c4ccc(CNCCN)cc4)cc32)c1 [Compound 106] was run?
**A.** 558 nM

**Q.** With CC(C)n1ncc2c(NS(=O)(=O)N(C)C)cc(-c3cccc(CN(C)CCN)c3)nc21 [Compound 107] as the compound, how does the IC50 read?
**A.** 562 nM

**Q.** How did the IC50 turn out when CC(C)n1ncc2c(C(=O)NCC3CCOCC3)cc(-c3cccc(CN(C)CCN)c3)nc21 [Compound 108] was run?
**A.** 568 nM

**Q.** For CNCCN(C)Cc1cccc(-c2nc(N(C)C3CCOCC3)c3cnn(C4CC4)c3n2)c1 [Compound 109, N1-(3-(1-cyclopropyl-4-(methyl(tetrahydro-2H-pyran-4-yl)amino)-1H-pyrazolo[3,4-d]pyrimidin-6-yl)benzyl)-N1,N2-dimethylethane-1,2-diamine], which IC50 is on record?
**A.** 570 nM

**Q.** Which IC50 does the source give for COc1cccc(-n2cnc3ccc(-c4ccc(CNCCN)cc4)cc32)c1 [Compound 110] here?
**A.** 583 nM

**Q.** With CCS(=O)(=O)Nc1cc(-c2cccc(CN(C)CCN)c2)nc2c1cnn2C(C)C [Compound 111] as the compound, how does the IC50 read?
**A.** 585 nM

**Q.** Which IC50 does the source give for CNCCN(C)Cc1cccc(-c2cc(C(=O)NCCCCCC(=O)NCC3CCOCC3)c3cnn(C(C)C)c3n2)c1 [Compound 112] here?
**A.** 588 nM

**Q.** For CNCCN(C)Cc1cccc(-c2nc(NC3CC3)c3cnn(C4CC4)c3n2)c1 [Compound 114], which IC50 is on record?
**A.** 617 nM

**Q.** For COc1ccccc1-c1nc2ccc(-c3ccc(CNCCN)cc3)cc2[nH]1 [Compound 115], which IC50 is on record?
**A.** 629 nM

**Q.** With CC(C)n1ncc2c(NC(=O)N(C)C)cc(-c3cccc(CN(C)CCN)c3)nc21 [Compound 116] as the compound, how does the IC50 read?
**A.** 640 nM

**Q.** With CNCCN(C)Cc1cccc(-c2cc(C(=O)NCCCCCC(=O)NCc3ccn(C)n3)c3cnn(C(C)C)c3n2)c1 [Compound 117] as the compound, how does the IC50 read?
**A.** 642 nM

**Q.** With CNCCN(C)Cc1cccc(-c2cc(C(=O)NCCCCC(=O)NCC3CCOCC3)c3cnn(C(C)C)c3n2)c1 [Compound 118] as the compound, how does the IC50 read?
**A.** 668 nM

**Q.** For CN(CCN)Cc1cccc(-c2nc(N(C)C3CCOCC3)c3cnn(C4CC4)c3n2)c1 [Compound 119], which IC50 is on record?
**A.** 714 nM

**Q.** CNCCN(C)Cc1cccc(-c2cc(C(=O)NCc3cc(C)nn3C)c3cnn(C(C)C)c3n2)c1 [Compound 120] was tested. Which IC50 did it give?
**A.** 718 nM

**Q.** How did the IC50 turn out when CNCCN(C)Cc1cccc(-c2cc(NC)c3cnn(C(C)C)c3n2)c1 [Compound 121] was run?
**A.** 721 nM

**Q.** With CNCCN(C)Cc1cccc(-c2cc(C(=O)NCCCCC(=O)NCc3ccn(C)n3)c3cnn(C(C)C)c3n2)c1 [Compound 122] as the compound, how does the IC50 read?
**A.** 725 nM

**Q.** Which IC50 does the source give for CNCCN(C)Cc1cccc(-c2cc(NC(=O)N(C)C)c3cnn(C(C)C)c3n2)c1 [Compound 123] here?
**A.** 766 nM

**Q.** How did the IC50 turn out when CNCCN(C)Cc1cccc(-c2cc(OC)c3cnn(C(C)C)c3n2)c1 [Compound 124] was run?
**A.** 770 nM

**Q.** Which IC50 does the source give for CC(C)n1ncc2c(C(=O)N[C@@H](C)c3ccccc3)cc(-c3cccc(CNCCN)c3)cc21 [Compound 125] here?
**A.** 783 nM
